Earlier results in US20130337047A1, “COMPOSITIONS FOR TREATING ORAL AND PERIODONTAL INFECTIONS” (ZarzaTech, Inc., priority 2012, published 2013).
Structures can show the parent of a compound that is named as a salt.

Key:
crevicular neutrophils = conditions: humans, topical 0.5% oral rinse

Compound | Anti-gingivitis activity (gingivitis; dose response study, dog gingivitis model) | Prevention of gingivitis (gingivitis; prevention study, same dog model) | Antibacterial function of crevicular neutrophils (crevicular neutrophils) | Clinical gingivitis benefit (crevicular neutrophils) | Antiplaque activity and tooth stain (gingivitis; dog gingivitis model) | Gingival inflammation and gingival bleeding (gingivitis; dog gingivitis model) | Gingivitis (gingivitis; dog gingivitis model)
CN/C(=N/CCSCc1nc[nH]c1C)NC#N [cimetidine HCL] | significant anti-gingivitis activity that increased with increasing dose | not conclusive |  |  |  |  | 
CN/C(=N/CCSCc1nc[nH]c1C)NC#N [cimetidine] |  |  | enhanced | no clinical gingivitis benefit | no antiplaque activity or increase in tooth stain | significantly reduced | reduced gingivitis
